# Experimental data reported in patent US20030023104A1, “Therapeutic compound - fatty acid conjugates” (COMMONWEALTH SCIENTIFIC AND INDUSTRIAL RESEARCH ORGANISATION, priority 1995, published 2003).
# Values joined by “and” are separate entries in the source; they are usually repeats but may differ in a detail not shown here. Equal values may be shown once.
# Experiments:
# [1] = system: UVB induced immunosuppression; assay: Contact Hypersensitivity Assay (oxazolone, net ear swelling); type: in vivo, mice; details: 1% (1 mg/mouse) painted within 10 minutes post UVB exposure, total 3 MED UVB
# Source text: The assay used the method described in “Current Protocols in Immunology” (Vol 1, Section 4.2 Eds Coligan et al. (1991) NIH). The sensitiser was Oxazalone. Briefly this method was as follows:
# UVB Radiation. Mice were irradiated with a single FL40SE UVB fluorescent tube (Oliphant) in a reflective batten, providing […] UVB radiation measured at target distance using an International Light IL1700 radiometer with a UVB detector sensitive between 250-315 nm. The mice received 0.1179 J/cm^2 UVB radiation, constituting 1 minimal erythemal dose (MED) as previously ascertained, on each of 3 consecutive days, being exposed unrestrained with the wire cage tops removed.
# Induction of Systemic Contact Hypersensitivity. Test mice were exposed on the dorsum to 1 MED UVB radiation (or no UVB radiation) at the same hour on days 1, 2 and 3. On days 8 and 9, the mice (irradiated and non-irradiated) were sensitized by topical application to the abdominal skin of 0.1 ml of 3% (w/v) oxazolone (Sigma Chemical Co., St Louis, Mo.) freshly prepared in ethanol. On day 15, the pre-challenge ear thickness was measured using the spring micrometer, and the mice were then challenged by the application of 5 ul freshly prepared 3% oxazolone/ethanol solution to both surfaces of each pinna. Ear thickness was again measured repeatedly between 16-24 hours, and the maximum ear thickness was recorded. The net ear swelling was calculated as the difference between the average pre-challenge and the average post-challenge ear thickness for each treatment group. Statistical significance of the differences in net ear swelling between treatment groups was assessed with Student's t test.
# The mice were painted with vehicle, 0.5 mg/mouse HC, 0.5 mg/mouse HC-Suc-GTP2. 1 mg/mouse 17-b HC-Suc-GTP3 or 17-b HC within 10 minutes post UVB exposure. A total of 3 MED of unshielded UVB was used. (Table 3)
# UVB induced oedema = assay: UVB erythema assay (net skin fold thickness); type: in vivo, Skh-1 hairless albino female mice; details: for Mean Net Skin Fold Thickness: 0.5 mg/mouse topical, 2MED UVB
# B16 melanoma cells = assay: Tumour Cytotoxicity Model (B16 melanoma in C57 mice); type: in vivo, C57 black mice; parameters: Mean (standard error) of B16 tumour volume adjusted for the variation in initial volume: scale not given here; details: for Mean (standard error) of B16 tumour volume adjusted for the variation in initial volume: statistically modified tumour volume; for B16 Tumour Volume: individual mice
# Protocol: Groups of C57 black mice were given an initiation dose of 2×10^5 B16 melanoma cells as an intradermal injection. The cells were suspended in MEM without serum. The abdomen was clipped and 100 μl of cells + MEM was injected. […] The tumours were measured with a micrometer and photographed just prior to the injection of drug (day 8-10).
# The cytotoxic drugs and their fatty acid conjugates were dissolved or suspended in 4:1 soy bean oil:ethyl oleate. A 10 mg/ml or a 20 mg/ml solution of each parent drug or the fatty acid conjugate made to the same molar concentration as the parent drug was then injected into the same region as the tumour at a dose of 0.5 mg or 1 mg. The tumours were then photographed, measured and re-injected every two to three days.
# [2] = system: JURKAT cells (acute T cell human leukemia); details: for IC50 / activity (cytotoxicity) when delivered to cultures in ethanol: JURKAT; for IC50: drugs coated onto plates (Table 9); for activity (cytotoxicity) when delivered to cultures in ethanol: ethanol delivery
# Protocol: The cytotoxicity of chlorambucil and chlorambucil fatty acid conjugates (CGTP1. P2 and P3) were tested in vitro with JURKAT cells (acute T cell human leukemia). Cells were incubated with drug and viability was determined by a colourmetric proliferation test. Cytotoxicity towards other cells lines was also tested (PC3 human prostate cancer cells, B16 mouse melanoma cells and human peripheral blood mononuclear cells).
# JURKAT cells were seeded into 96-well plates at a density of 1.6×10^4 cells/200 μl complete RPMI ± drug and cultured for 64 h. A 1:3 split of confluent PC3 cells in a 75 cm^2 flask were seeded into a 96-well plate and cultured for 48 h in complete RPMI. Media was removed and complete RPMI ± drug was added to wells. Cells were further cultured for 72 h.
# i) Ethanol. Drugs were dissolved in ethanol and added to culture media. The final concentration of ethanol in media was no greater than 1% (v/v). This delivery was used for experiments with JURKAT, PBMC, PC3 and B16 cell types.
# ii) Coating of plates. Drugs were dissolved in ethanol and aliquots (up to 40 μl) were added to 90% (v/v) isopropanol. Solution (50 μl) was then added to wells of a 96-well plate and the solvent evaporated by heating at 37° C. Media ± cells was then added. This delivery was used for some experiments with JURKAT cells.
# Viability was determined using the MTS assay (CellTiter 96TM AQueous Non-Radioactive Cell Proliferation Assay) from Promega. Reagent (40 μl) was added to each well and absorbance values at 490 nm were determined 1 to 4 h later. The effect of drug on cell viability was compared to cultures set up containing no drug (100% viability). Wells containing no cells were used to control for background absorbance (0% viability). Each concentration was tested in at least 3 wells. Concentrations necessary to cause a 50% inhibition of cellular growth of control cells (IC50) were calculated by linear regression.
# [3] = system: JM (semi mature human T-cell from lymphoblastoid leukemia); assay: Cell growth (cytotoxicity) in JM cells; type: cell-based; details: 5 days, read-out: IC50 (concentration of drug which reduces cell growth by 50%)
# Protocol: (§1) The anti-HIV activities of AZT-Suc-GTP1 and AZT-Suc-GTP2 were also tested. Infected cells were incubated for 5 days with compound. Compounds were dissolved in DMSO and 5-fold dilutions were used. The following parameters were measured: syncytia formation, virus antigen gp120 production, cell survival. Cytotoxicity is also measured in uninfected cells.
# (§2) JM (semi mature human T-cell from lymphoblastoid leukemia) infected with HIV-I U4550
# IC50=concentration of drug which reduces cell growth by 50%.
# HIV-I U4550 = assay: Anti HIV activity, Ag gp120 production in infected JM cells; type: cell-based; details: JM cells infected with HIV-I U4550, 5 days; read-out: EC50 (concentration which reduces Ag gp120 by 50% in infected cell cultures)
# Protocol: as §1, §2
# EC50=concentration which reduces Ag gp120by 50% in infected cell cultures.
compound,measurement,setting,value
"CCCCCCCCCCCCCCCC(=O)OCC(COC(=O)CCCCCCCCCCCCCCC)(COC(=O)CCCCCCCCCCCCCCC)NC(=O)CNC(=O)CCC(=O)OCC(=O)[C@@]1(O)CC[C@H]2[C@@H]3CCC4=CC(=O)CC[C@]4(C)[C@H]3[C@@H](O)C[C@@]21C [17-b HC-Suc-GTP3, 17-b Hydrocortisone-21-Suc-Gly-Tris-Tripalmitate]",Net Ear Swelling,[1],32.8 10^−2 mm
same,Mean Net Skin Fold Thickness,UVB induced oedema; applied Day 0 after UV exposure,42.7 ± 13.7 10^−2 mm
same,Mean Net Skin Fold Thickness,UVB induced oedema; applied Day −3 (3 days prior to UV exposure),90.7 ± 14.8 10^−2 mm
same,activity equivalent to % of the hydrocortisone activity in protecting against UVB induced oedema,"UVB induced oedema; 0.5 mg/mouse, applied at Day 0, post UVB exposure",approximately 50%
"CCCC(=O)O[C@]1(C(=O)CO)CC[C@H]2[C@@H]3CCC4=CC(=O)CC[C@]4(C)[C@H]3[C@@H](O)C[C@@]21C [17b-Hydrocortisone, 17-Butyrate-Hydrocortisone, reference compound]",Net Ear Swelling,[1],38.6 10^−2 mm
CCCCCCCCCCCCCCCC(=O)OCC(CO)(COC(=O)CCCCCCCCCCCCCCC)NC(=O)CNC(=O)CCCc1ccc(N(CCCl)CCCl)cc1 [CGTP2],difference in tumour volume from the Vehicle group (95% level),B16 melanoma cells; 0.5 mg and 1.0 mg groups,significant difference
same,Mean (standard error) of B16 tumour volume adjusted for the variation in initial volume,"B16 melanoma cells; 13/11/95, 0.5 mg",2.39 (0.523)
same,Mean (standard error) of B16 tumour volume adjusted for the variation in initial volume,"B16 melanoma cells; 13/11/95, 1.0 mg",2.58 (0.523)
same,Mean (standard error) of B16 tumour volume adjusted for the variation in initial volume,"B16 melanoma cells; 15/11/95, 0.5 mg",4.07 (0.881)
same,Mean (standard error) of B16 tumour volume adjusted for the variation in initial volume,"B16 melanoma cells; 15/11/95, 1.0 mg",3.89 (0.819)
same,Mean (standard error) of B16 tumour volume adjusted for the variation in initial volume,"B16 melanoma cells; 16/11/95, 0.5 mg",4.84 (1.06)
same,Mean (standard error) of B16 tumour volume adjusted for the variation in initial volume,"B16 melanoma cells; 16/11/95, 1.0 mg",4.23 (0.98)
same,Mean (standard error) of B16 tumour volume adjusted for the variation in initial volume,"B16 melanoma cells; 17/11/95, 0.5 mg",4.90 (1.28)
same,Mean (standard error) of B16 tumour volume adjusted for the variation in initial volume,"B16 melanoma cells; 17/11/95, 1.0 mg",4.84 (1.19)
same,B16 Tumour Volume,"B16 melanoma cells; Day 1, drug dose 0.5 mg injected at tumour region",0.5 mm^2 and 1.0 mm^2 and 2.7 mm^2
same,B16 Tumour Volume,"B16 melanoma cells; Day 1, drug dose 0.5 mg injected at tumour region, listed as CCTP2",14.1 mm^2
same,B16 Tumour Volume,"B16 melanoma cells; Day 1, drug dose 1.0 mg",8.2 mm^2 and 38.3 mm^2
same,B16 Tumour Volume,"B16 melanoma cells; Day 1, drug dose 1.0 mg, listed as CCTP2",5 mm^2
same,B16 Tumour Volume,"B16 melanoma cells; Day 3, drug dose 0.5 mg",0.3 mm^2 and 1 mm^2 and 0 mm^2
same,B16 Tumour Volume,"B16 melanoma cells; Day 3, drug dose 0.5 mg, listed as CCTP2",27.4 mm^2
same,B16 Tumour Volume,"B16 melanoma cells; Day 3, drug dose 1.0 mg",32.7 mm^2 and 73.5 mm^2
same,B16 Tumour Volume,"B16 melanoma cells; Day 3, drug dose 1.0 mg, listed as CCTP2",0 mm^2 and 7.7 mm^2
same,B16 Tumour Volume,"B16 melanoma cells; Day 5, drug dose 0.5 mg",11.8 mm^2 and 19.1 mm^2 and 0.0 mm^2
same,B16 Tumour Volume,"B16 melanoma cells; Day 5, drug dose 0.5 mg, listed as CCTP2",82.8 mm^2
same,B16 Tumour Volume,"B16 melanoma cells; Day 5, drug dose 1.0 mg",111.9 mm^2 and 174.1 mm^2
same,B16 Tumour Volume,"B16 melanoma cells; Day 5, drug dose 1.0 mg, listed as CCTP2",0 mm^2 and 38.3 mm^2
same,B16 Tumour Volume,"B16 melanoma cells; Day 6, drug dose 0.5 mg",19.8 mm^2 and 13.6 mm^2 and 0 mm^2
same,B16 Tumour Volume,"B16 melanoma cells; Day 6, drug dose 0.5 mg, listed as CCTP2",167.4 mm^2
same,B16 Tumour Volume,"B16 melanoma cells; Day 6, drug dose 1.0 mg",108.4 mm^2 and 240.3 mm^2
same,B16 Tumour Volume,"B16 melanoma cells; Day 6, drug dose 1.0 mg, listed as CCTP2",0 mm^2 and 61.6 mm^2
same,B16 Tumour Volume,"B16 melanoma cells; Day 7, drug dose 0.5 mg",21.8 mm^2 and 35.1 mm^2 and 0 mm^2
same,B16 Tumour Volume,"B16 melanoma cells; Day 7, drug dose 0.5 mg, listed as CCTP2",152.8 mm^2
same,B16 Tumour Volume,"B16 melanoma cells; Day 7, drug dose 1.0 mg",254.1 mm^2 and 215.0 mm^2
same,B16 Tumour Volume,"B16 melanoma cells; Day 7, drug dose 1.0 mg, listed as CCTP2",0 mm^2 and 92.6 mm^2
same,IC50,[2],17.7 µM
same,activity (cytotoxicity) when delivered to cultures in ethanol,[2],not observed
"CCCCCCCCCCCCCCCC(=O)OCC(COC(=O)CCCCCCCCCCCCCCC)(COC(=O)CCCCCCCCCCCCCCC)NC(=O)CNC(=O)CCCc1ccc(N(CCCl)CCCl)cc1 [CGTP3, Chlorambucil-Gly-Tris-Tripalmitate]",IC50,[2],30 µM
same,activity (cytotoxicity) when delivered to cultures in ethanol,[2],not observed
"CCCCCCCCCCCCCCCC(=O)OCC(CO)(CO)NC(=O)CN [GTP1, Glycine-Tris-Monopalmitate, reference compound]",cytotoxicity to JURKAT cells (in words),[2],no activity
"O=c1[nH]cnc2c1ncn2[C@H]1CC[C@@H](CO)O1 [ddI, reference compound]",IC50,[3],> 100 µM
same,EC50,HIV-I U4550,1 µM
